The text below walks through data of ChEMBL document CHEMBL4610105, “Microketides A and B, Polyketides from a Gorgonian-Derived Microsphaeropsis sp. Fungus” (J Nat Prod, 2020).

One experiment relates to Kocuria rhizophila. Put plainly: Antibacterial activity against Kocuria rhizophila assessed as reduction in microbial growth after 18 hrs by MTT based broth dilution method. Type of experiment: functional. (In general: Dilution methods test growth across graded concentrations, often in twofold steps.)
In the next experiment the test system is Priestia megaterium. Put plainly: Antibacterial activity against Bacillus megaterium assessed as reduction in microbial growth after 18 hrs by MTT based broth dilution method. It is filed as functional.
Another experiment has as its system Isochrysis galbana. Put plainly: Anti-phytoplankton activity against Isochrysis galbana after 96 hrs by fluorometric method. It is filed as functional, organism-based.
For another experiment, the system named is Bacillus anthracis. Put plainly: Antibacterial activity against Bacillus anthracis assessed as reduction in microbial growth after 18 hrs by MTT based broth dilution method. Type of experiment: functional.
The next experiment relates to Bacillus subtilis. Put plainly: Antibacterial activity against Bacillus subtilis assessed as reduction in microbial growth after 18 hrs by MTT based broth dilution method. Type of experiment: functional.
Another experiment deals with Salmonella typhi. Put plainly: Antibacterial activity against Salmonella typhi assessed as reduction in microbial growth after 18 hrs by MTT based broth dilution method. The following applies: Salmonella enterica. Type of experiment: functional, Salmonella enterica subsp. enterica serovar Typhi.
Another experiment relates to Heterosigma akashiwo. Put plainly: Anti-phytoplankton activity against Heterosigma akashiwo after 96 hrs by fluorometric method. It is filed as functional, organism-based.
A further experiment has as its system Colletotrichum truncatum. Put plainly: Antifungal activity against Colletotrichum truncatum assessed as reduction in microbial growth. It is filed as functional.
For a further experiment, the system named is Pseudomonas aeruginosa. Put plainly: Antibacterial activity against Pseudomonas aeruginosa assessed as reduction in microbial growth after 18 hrs by MTT based broth dilution method. It is filed as functional.
The next experiment deals with Bacillus cereus. Put plainly: Antibacterial activity against Bacillus cereus assessed as reduction in microbial growth after 18 hrs by MTT based broth dilution method. It is filed as functional.
A further experiment concerns Pestalotiopsis calabae. Put plainly: Antifungal activity against Pestalotia calabae assessed as reduction in microbial growth. It is filed as functional.
The next experiment deals with Klebsiella aerogenes. Put plainly: Antibacterial activity against Enterobacter aerogenes assessed as reduction in microbial growth after 18 hrs by MTT based broth dilution method. Type of experiment: functional.
The next experiment has as its system Vibrio parahaemolyticus. Put plainly: Antibacterial activity against Vibrio parahaemolyticus assessed as reduction in microbial growth after 18 hrs by MTT based broth dilution method. It is filed as functional.
In experiment [1] the test system is Salmonella enterica subsp. enterica serovar Paratyphi B. Put plainly: Antibacterial activity against Salmonella paratyphi B assessed as reduction in microbial growth after 18 hrs by MTT based broth dilution method. It is filed as functional.
The next experiment deals with Proteus vulgaris. Put plainly: Antibacterial activity against Proteus vulgaris assessed as reduction in microbial growth after 18 hrs by MTT based broth dilution method. It is filed as functional.
For the next experiment, the system named is Escherichia coli. Put plainly: Antibacterial activity against Escherichia coli assessed as reduction in microbial growth after 18 hrs by MTT based broth dilution method. Type of experiment: functional.
For the next experiment, the system named is Nocardia brasiliensis. Put plainly: Antibacterial activity against Nocardia brasiliensis assessed as reduction in microbial growth after 18 hrs by MTT based broth dilution method. It is filed as functional.
For another experiment, the system named is Tetraselmis helgolandica. Put plainly: Anti-phytoplankton activity against Platymonas helgolandica after 96 hrs by fluorometric method. It is filed as functional, organism-based.
Experiment [2] is described as follows: Antifungal activity against Gloeosporium musarum assessed as reduction in microbial growth. It is filed as functional.
The test system of the next experiment is Karenia mikimotoi. Put plainly: Anti-phytoplankton activity against Karenia mikimotoi after 96 hrs by fluorometric method. It is filed as functional, organism-based.
The next experiment relates to Micrococcus luteus. Put plainly: Antibacterial activity against Micrococcus lysodeikticus assessed as reduction in microbial growth after 18 hrs by MTT based broth dilution method. Type of experiment: functional.
A further experiment relates to Candida albicans. Put plainly: Antifungal activity against Candida albicans assessed as reduction in microbial growth. Type of experiment: functional.
The subject of a further experiment is Shigella dysenteriae. Put plainly: Antibacterial activity against Shigella dysenteriae assessed as reduction in microbial growth after 18 hrs by MTT based broth dilution method. It is filed as functional.

As usually defined, the MIC is the least concentration at which growth counts as inhibited. For orientation: EC50 means the midpoint of the concentration-response curve. A high value points to a need for much substance.

≈ marks a conversion by molar mass, not a printed value.

Take `CC1=C(Cc2c(C)cccc2O)C(=O)[C@@](C)(O)[C@@H](O)C1`: the MIC with Kocuria rhizophila was determined as 0.19 µg/mL; in the experiment on Priestia megaterium it was 0.19 µg/mL; with Bacillus anthracis it was 0.19 µg/mL; in the experiment with Bacillus subtilis, 0.19 µg/mL; in the experiment on Salmonella typhi, 0.19 µg/mL; in the experiment on Colletotrichum truncatum, 1.56 µg/mL. Besides, the MIC in the experiment with Pseudomonas aeruginosa was 0.19 µg/mL; with Bacillus cereus, 0.19 µg/mL; in the experiment with Pestalotiopsis calabae, 1.56 µg/mL; in the experiment on Klebsiella aerogenes, 0.19 µg/mL; in the experiment on Vibrio parahaemolyticus, 0.39 µg/mL; in experiment [1] it was 0.19 µg/mL. The MIC in the experiment with Proteus vulgaris turned out to be 0.39 µg/mL; with Escherichia coli, 1.56 µg/mL; in the experiment with Nocardia brasiliensis, 0.19 µg/mL; in [2], 3.13 µg/mL; with Micrococcus luteus, 0.39 µg/mL; in the experiment with Candida albicans it was 1.56 µg/mL. Besides, the MIC in the experiment with Shigella dysenteriae is 3.13 µg/mL. In addition, the EC50 was over 50 µg/mL with Isochrysis galbana, over 50 µg/mL in the experiment on Heterosigma akashiwo, 12.3 µg/mL (≈ 44.5 µM) in the experiment on Tetraselmis helgolandica and over 50 µg/mL in the experiment on Karenia mikimotoi.

As to `CC1=C(Cc2c(C)cccc2O)C(=O)[C@@](C)(O)[C@H](O)C1`, the MIC with Kocuria rhizophila was 0.39 µg/mL; in the experiment with Priestia megaterium, 0.19 µg/mL; in the experiment on Bacillus anthracis, 0.39 µg/mL; in the experiment with Bacillus subtilis it was 1.56 µg/mL; in the experiment with Salmonella typhi it was 0.19 µg/mL; in the experiment with Colletotrichum truncatum, 3.13 µg/mL. Further, the MIC with Pseudomonas aeruginosa was 1.56 µg/mL; in the experiment on Bacillus cereus it was 0.39 µg/mL; in the experiment on Pestalotiopsis calabae it was 3.13 µg/mL; with Klebsiella aerogenes, 1.56 µg/mL; in the experiment on Vibrio parahaemolyticus it was 3.13 µg/mL; in [1], 0.39 µg/mL. Further, the MIC in the experiment on Proteus vulgaris is 1.56 µg/mL; in the experiment on Escherichia coli it was 3.13 µg/mL; with Nocardia brasiliensis, 0.39 µg/mL; in experiment [2], 3.13 µg/mL; with Micrococcus luteus it was 0.78 µg/mL; in the experiment on Candida albicans, 3.13 µg/mL. In the experiment with Shigella dysenteriae, the MIC was found to be 6.25 µg/mL. Besides, the EC50 was over 50 µg/mL with Isochrysis galbana, over 50 µg/mL in the experiment with Heterosigma akashiwo, 16.8 µg/mL (≈ 60.8 µM) with Tetraselmis helgolandica and over 50 µg/mL in the experiment on Karenia mikimotoi.

In the case of `O=C(O)c1cn(C2CC2)c2cc(N3CCNCC3)c(F)cc2c1=O` [CIPROFLOXACIN], the MIC in the experiment with Kocuria rhizophila turned out to be 0.19 µg/mL; in the experiment with Priestia megaterium, 0.19 µg/mL; in the experiment with Bacillus anthracis, 0.19 µg/mL; in the experiment on Bacillus subtilis, 0.09 µg/mL; in the experiment with Salmonella typhi, 0.09 µg/mL; with Pseudomonas aeruginosa, 0.19 µg/mL. Further, the MIC with Bacillus cereus worked out at 0.09 µg/mL; in the experiment with Klebsiella aerogenes, 0.05 µg/mL; in the experiment with Vibrio parahaemolyticus it was 0.19 µg/mL; in experiment [1], 0.05 µg/mL; with Proteus vulgaris, 0.09 µg/mL; with Nocardia brasiliensis, 0.19 µg/mL. Moreover, the MIC in the experiment with Micrococcus luteus and with Shigella dysenteriae was 0.19 µg/mL each time.

`CC(=O)N1CCN(c2ccc(OCC3COC(Cn4ccnc4)(c4ccc(Cl)cc4Cl)O3)cc2)CC1` (centres undefined) [KETOCONAZOLE]: the MIC in the experiment on Colletotrichum truncatum was 0.19 µg/mL; in the experiment on Pestalotiopsis calabae, 0.78 µg/mL; in experiment [2] it was 0.39 µg/mL; in the experiment with Candida albicans it was 0.78 µg/mL.
